In US20040110928A1, “Peptide conjugates for drug delivery” (priority 2000, published 2004):

Settings: biotin tag reacted with fluorescently-labelled avidin
Method: In a separate experiment, two synthetic peptides were produced, and covalently attached to a biotin molecule. The sequences were:
The synthetic peptides were assessed for translocation by reacting the biotin tag with fluorescently-labelled avidin.

Substance	Translocation
Biotin-spacer-TPKKAKKPAAAAGASSAKSP-amide [SEQ ID NO. 11]	Translocation was observed
Biotin-spacer-TPKKASSPAAAAGAKKAKSP-amide [SEQ ID NO. 10]	no translocation was observed
